Test results from patent publication US20250057803A1, “PRODUCTS OF MANUFACTURE AND METHODS FOR TREATING, AMELIORATING OR PREVENTING CORONAVIRUS INFECTION” (TOPELIA AUST LIMITED (ACN 652 771 670), priority 2020, published 2025).

Key:
coronavirus COVID-19 [1] = format: in vivo, human
coronavirus COVID-19 [2] = format: in vivo; details: contact of a positive patient; after 4 days of treatment

In the case of `CCN(CC)CCCC(C)Nc1ccnc2cc(Cl)ccc12` (stereo not drawn) [chloroquine], the “contraction of COVID-19 under prophylaxis” value (coronavirus COVID-19 [1]; […], group of elderly travelers on a ship with cases) is reported as “None contract COVID-19 coronavirus” and the “test for the virus upon arrival home after the cruise” value (coronavirus COVID-19 [1]; in vivo) is reported as “negative”.

In the case of `CCOC(=O)C1=C[C@@H](OC(CC)CC)[C@H](NC(C)=O)[C@@H](N)C1` [osteltamivir, oseltamivir], the “blood result for COVID-19 virus” value (coronavirus COVID-19 [2]) is reported as “positive”.
